Assay results published in ChEMBL document CHEMBL1157539, “Thousands of chemical starting points for antimalarial lead identification” (Nature, 2010).

Test system: Plasmodium falciparum
Assay: GSK_TCMDC: Inhibition of Plasmodium falciparum 3D7 in whole erythrocytes, using parasite LDH activity as an index of growth.
Type: functional, organism-based
Settings: Plasmodium falciparum, 3D7

SMILES	XC50 [nM]
CCN(CC)CCN(Cc1ccc(-c2ccc(C(F)(F)F)cc2)cc1)C(=O)Cn1c(CCc2ccc(F)c(F)c2F)nc(=O)c2ccccc21	795
CN(C)CCOc1ccc2c(=O)cc(CCc3cccc(F)c3F)n(CC(=O)N(C)Cc3ccc(-c4ccc(C(F)(F)F)cc4)cc3)c2c1	1200
N=C(N)c1ccc(-c2cc(-c3cccc(C(=N)N)c3)on2)cc1	13.8
CCCCCCCCc1c(C)[nH]c(C)c(Cl)c1=O	229
CCOc1ccc(N(CC)S(=O)(=O)c2cc(Br)cc3c2N(C(=O)C2CC2)CC3)cc1	134
Cc1cc(-c2ccc(CNCc3ccsc3)cc2)ccc1S(=O)(=O)NCCN1CCCC1	725
Cc1cccc2nc(-c3cccc(-c4cccc(CNCc5cccc(N)c5)c4)c3)[nH]c12	543
Cc1ccc(NC(=O)Nc2ccc(Cl)cc2)cc1-c1ccc(C(=O)Nc2ccncc2)cc1	534
Cc1ccc(NC(=O)c2ccc3ncccc3c2)cc1OC1CCN(Cc2ccc(F)cc2)C1 (centres undefined)	1360
CCCOc1cc(O)c(-c2[nH]nc(C)c2Oc2ccccc2)cc1CC	1070
CN1CCN(CCNc2c3ccccc3nc3c2ccc2ccccc23)CC1	606
CN(C)c1ccc(-c2ccc(C(=O)NC3CCN(Cc4ccc(F)cc4)CC3)s2)cc1	1050
CC(C)NCc1ccc(-c2cccc(-c3nc4cc(F)ccc4[nH]3)c2)cc1	405
Cc1cc(N2CCCC2)nc(Nc2ccc(NC(=O)c3ccc4c(c3)OCO4)cc2)n1	815
CCOc1ccc(NC(C)=O)c(O)c1	843
CC1CN(Cc2csc(Nc3ccccc3)n2)CC(C)O1 (centres undefined)	1020
Cc1ccc2[nH]c(C)c(Br)c(=O)c2c1	812
CCOc1c(C)cc(C(F)(F)F)cc1CNCCCNc1cc(=O)c2ccccc2[nH]1	161
COc1ccc2nccc([C@@H](O)CN3CCC(NCc4cc5oc(=O)[nH]c5cc4F)CC3)c2c1	774
CC(C)CCN1CCCN(Cc2cccc(NC(=O)c3ccc(Cl)c(Cl)c3)c2)CC1	1020
CC(Cc1ccc(SC(C)(C)C)cc1)NCC(O)c1cccc(Cl)c1 (centres undefined)	317
O=C(Nc1ccnc(N2CC3CC2CN3Cc2cccc(O)c2)c1)c1ccc(F)cc1 (centres undefined)	1240
c1ccc(-n2cncn2)cc1	591
O=[N+]([O-])c1ccc2c(-c3ccccc3)c(-c3ccccc3)n(O)c2c1	989
Oc1ccc2[nH]c(-c3ccc(F)cc3F)nc2c1CN1CCC(O)(c2ccccc2)CC1	839

SMILES	XC50 [nM]
COc1ccccc1N1CCN(CCCCNC(=O)c2ccc(NC(=O)c3ccc4ccccc4c3)cc2)CC1	800
Cc1nc2nc(N)nc(N)c2c(C)c1Cc1ccc(C(N)=O)cc1	530
O=C(/C=C/c1ccc(Cl)c(Cl)c1)NCCCCCN1CCC(NC(=O)c2ccc3ccccc3c2)CC1	1020
CCc1cc2c(Sc3nc4ccccc4[nH]3)ncnc2s1	823
N#Cc1ccc2[nH]c(-c3ccccc3)nc2c1	698
CCOc1cccc(C2c3c(oc4ccccc4c3=O)C(=O)N2CCN(CC)CC)c1 (centres undefined)	746
O=C(Cc1ccc(NC(=O)c2ccc(O)c(-c3cccc([N+](=O)[O-])c3)c2)cc1)NCCN1CCCCC1	895
COc1ccc(NC(=O)[C@H](Cc2ccccc2)Nc2cc(C)nc(NCCc3ccccn3)n2)cc1	834
COc1cc(COc2c(C)nc(N)nc2N)cc(OC)c1OC	332
COc1cc(CCON2C(N)=NC(N)=NC2(C)C)cc(OC)c1OC	49.3
CCn1c(-c2nonc2N)nc2c(-c3cccc(NC(=O)Nc4cccc(C#N)c4)c3)ncc(OCCCN)c21	669
CNC(=O)NC1=NC(C)(C)N(OCCCOc2cc(Cl)c(Cl)cc2Cl)C(N)=N1	935
Cc1cccc2nc(-c3cccc(-c4cccc(NC(=O)c5cnn6cccnc56)c4)c3)[nH]c12	671
NC1CCCN(Cc2cccc(-c3ccc(-c4nc5ccccc5[nH]4)cc3)c2)C1 (centres undefined)	722
CC(C)(C)c1ccc2oc(=O)n(C3CCN(C(=O)c4ccc([N+](=O)[O-])o4)CC3)c2c1	816
FC(F)(F)c1ccc2[nH]c(-c3ccc(-c4ccc(CNCc5ccccc5)cc4)cc3)nc2c1	143
Cc1[nH]c(-c2ccc(F)cc2)cc1C(=O)NC1CCN(Cc2ccccc2)CC1	1130
CCCn1c(Sc2ccc(C#N)c([N+](=O)[O-])c2)nnc1-c1cc(OC)cc(OC)c1	718
CC(C)NCc1ccc(OCc2cccc(COc3ccc(CNC(C)C)cc3I)c2)c(I)c1	92
CN(C)CCOc1ccc(-c2cc(-c3ccnc(N)n3)c(-c3ccc(Cl)c(O)c3)o2)cc1	978
COc1cc2nc(N3CCC(C(N)=O)CC3)nc(NCc3ccccc3)c2cc1OC	887
COc1cc2nc(Nc3ccc(C)cc3)nc(Nc3ccc(C)cc3)c2cc1OC	139
CC[C@H]1CN2CC[C@H]1C[C@@H]2[C@@H](O)c1ccnc2ccc(OC)cc12	119
CCc1ccc(CN2CCC(CN(c3ccc(N4CCOCC4)c(F)c3)S(=O)(=O)c3ccc(C(C)(C)CC)cc3)CC2)cc1	706
CCCCCCNc1cc(C)nc(NC(=N)Nc2cccc(C(F)(F)F)c2)n1	739

SMILES	XC50 [nM]
COc1ccc2nc(C)cc(NCc3cccc4ccccc34)c2c1	217
C[C@H](Cc1ccc(OCCCCCCOc2ccccc2)cc1)NC[C@H](O)c1cccc(Cl)c1	70.4
CC1CN(Cc2cccc(C#N)c2)CCN1c1ccc(NC(=O)c2cccs2)cc1 (centres undefined)	675
COc1ccc(CN(C)CCCSc2ccc(NC(=O)c3cccc4c(=O)cc(-c5ccccc5)[nH]c34)cc2)cc1OC	920
Cc1cccc2nc(-c3ccc(-c4ccc(CN5CCN(c6ccc(C#N)cn6)CC5)cc4)s3)[nH]c12	1130
Cn1nc(-c2ccc(S(=O)(=O)N3CCC(CN4CCC(c5c[nH]c6ccccc56)CC4)CC3)s2)cc1C(F)(F)F	1090
CCC(=O)Nc1cc(=O)[nH]c2nc(-c3ccc(Cl)cc3)nn12	570
COc1ccc(-c2ccc3c(-c4cccc(S(C)(=O)=O)c4)cnc(N)c3c2)cc1	1330
O=C(Nc1ccc(Oc2ccc(OC(F)(F)F)cc2)cc1)c1ccco1	1130
Cc1cc(-c2ccc(NC(=O)N3CCc4cc(Cl)c(N5CCN(C)CC5)cc43)cc2)ccc1C#N	589
CC(C)c1nc(N2CCN(C(=S)NCc3ccccc3)CC2)c(C#N)c2c1COC(C)(C)C2	142
N#CC1(CCCNCCc2ccc(O)cc2)CCCc2c(O)cccc21 (centres undefined)	763
CCCc1cc(Cc2cnc(N)nc2N)ccc1OCCCCCC(=O)O	577
NC1CCN(Cc2ccc(-c3ccc(-c4nc5cc(F)ccc5[nH]4)cc3)cc2)C1 (centres undefined)	184
CN1CCN(Cc2ccc(-c3ccc4c(Nc5ccc(Cl)cc5F)ccnc4c3)o2)CC1	155
CCOc1ccccc1N1CCN(CCCNC(=O)/C(=C/C=C/c2cc3cc(Cl)c(Cl)cc3[nH]2)OC)CC1	851
Nc1cccc(CNCc2cccc(-c3cccc(-c4nc5cc(C(F)(F)F)ccc5[nH]4)c3)c2)c1	510
CN(C)CCOc1ccc(-n2c(-c3nonc3N)nc3cncc(-c4ccc(F)cc4)c32)cc1	866
CCN(CC)CCNc1ccnc2[nH]c3ccc(Cl)cc3c12	245
COCCNC(=O)c1ccc(OC2CCN(CC(C)=Cc3ccccc3)CC2)c(Cl)c1	652
O=C(NCCCCCN1CCC(c2c[nH]c3ccccc23)CC1)Nc1cccc(Cl)c1	1020
Cc1ccc(-c2ccc(Cl)cc2Oc2cnc(N)nc2N)o1	1080
C[C@@H](CC1CCCCC1)OC(=O)N(C)[C@@H]1CCN(C#N)C1	621
CCOC(=O)c1[nH]c2cc(Cl)cc(Cl)c2c1/C=C/C(=O)Nc1ccc(-c2cnc(NC(C)=O)[nH]2)cc1	1020
CCc1c[nH]c2c(N3CCCCC3=O)cc(C(=O)N[C@@H](Cc3ccccc3)[C@H](O)CNCc3cccc(OC)c3)cc12	169

SMILES	XC50 [nM]
NC1CCCN(Cc2ccc(-c3cccc(-c4nc5cc(F)ccc5[nH]4)c3)cc2)C1 (centres undefined)	640
CC[C@@]1(O)C(=O)OCc2c1cc1n(c2=O)Cc2c-1nc1cc3c(cc1c2CN1CCOCC1)OCO3	965
COc1ccc(-n2nc(C(=O)NCCC3=CCCCC3)c3ccccc3c2=O)cc1	682
CN(C)CCC(O)C=C(c1ccc(Cl)cc1)c1ccc(Cl)cc1 (centres undefined)	948
O=C(NC1CCCCC1)N(Cc1ccc(-c2ccc(CNCc3ccc4c(c3)OCO4)cc2)cc1)C1CCN(Cc2ccccc2)CC1	690
CCC[C@@H]([C@@H](CC1CCCCC1)C(=O)N[C@H](C(=O)Nc1nccs1)C(C)(C)SCCNC(=O)OCC)N(O)C=O	83.4
Cc1cc(=NN=Cc2ccc(F)cc2)c2ccc(F)cc2[nH]1	950
CCN(CC)CCN(Cc1ccc(-c2ccc(C(F)(F)F)cc2)cc1)C(=O)Cn1nc(-c2ccc(C(F)(F)F)cc2)ccc1=O	797
Cc1cc(N[C@@H](CC(C)C)C(=O)Nc2ccccc2)nc(NCCc2ccccc2)n1	888
CCCCc1ccc(-c2c(N)nc(N)nc2CC)cc1	954
CC(C)Sc1nc2c(c(=O)n1Cc1ccco1)C1(CCCC1)Cc1ccccc1-2	1630
Cc1ccc(C(=O)Nc2cccc([N+](=O)[O-])c2)cc1S(=O)(=O)N1CC(C)CC(C)C1 (centres undefined)	794
COc1cc(OC)cc(-c2nn(-c3ccc([N+](=O)[O-])cc3Cl)c(=S)n2CC2CCCO2)c1 (centres undefined)	961
CCC[C@@H]([C@@H](CC1CCCCC1)C(=O)N[C@@H](CCOC(=O)NCC)C(=O)Nc1nccs1)N(O)C=O	81.8
Cc1ccc2c(=NN=Cc3cccc(F)c3)cc(C)[nH]c2c1	857
COc1ccccc1C1CC(c2ccccc2)=NN1C(=O)c1ccco1 (centres undefined)	397
O=C(Nc1ccc(OC2CCN(Cc3ccco3)C2)c(Cl)c1)c1ccc2ncccc2c1 (centres undefined)	1080
Cc1c(S(=O)(=O)Nc2ccc3nccc(N4CC(C)NC(C)C4)c3c2)sc2ccc(Cl)cc12 (centres undefined)	1020
COc1ccc(-c2cccc(NC(=O)c3ccc(Cl)cc3)c2)cc1CN1CCCC1	778
CC(C)Cc1cn(-c2nc(-c3nc4ccccc4[nH]3)cs2)c2cc(Cl)ccc12	483
CC[C@H]1CN2CC[C@H]1C[C@H]2[C@@H](O)c1cc(OCCCN(C)C)nc2ccc(OC)cc12	132
NC(=O)c1ccc(NCC(=O)Nc2cccc(-c3cccc(-c4nc5cc(F)ccc5[nH]4)c3)c2)cc1	867
CC(CON1C(N)=NC(N)=NC1(C)C)c1ccc(Cl)cc1Cl (centres undefined)	3.2
Cc1cccc(NC(=O)c2cnc(N3CCN(c4ccncc4)CC3)c(Cl)c2)c1	678
